Experimental findings from US8853219B2, “Compounds and compositions for cognition-enhancement, methods of making, and methods of treating” (NeuroSolis, Inc., priority 2010, dated 2014) are described below.

Data set [1] has as its system inositol phosphate signaling pathway. Nature of the data set: In vivo measurement of tissue inositol phosphate signaling pathway activation (hippocampus, salivary gland). The note with it: rat, Compound 3 1 mg/kg. The protocol:
Experimental compounds or drug substances were administered using standard techniques to Long Evans Hooded rats weighing 225 to 350 grams, and which had been pretreated with a subcutaneous injection of lithium chloride at a suitable dose between 3 and 10 mmoles per kg. At suitable times the animals were briefly anesthetized using 5% isoflurane and euthanized by decapitation. The brains and submaxillary salivary glands were rapidly dissected out, and the hippocampuses were dissected from the brains. The dissected tissues were homogenized in a suitable volume of ice-cold phosphate-buffered saline containing 10 mM lithium chloride, pH7.4, using a tissue homogenizer, and used immediately or frozen in aliquots at −80 degC for future use. The concentration of inositol-1-phosphate was determined in the homogenates using the IPOne TR-FRET assay (CisBio cat no 621PAPEB), following the manufacturer's instruction

Another data set concerns rats. Nature of the data set: Salivation after transdermal iontophoretic co-delivery of agonist and antagonist from one patch. In kind it is in vivo, rat. The note with it: anesthetized rats, device with 1 mg Compound 3 plus 0.01 mg antagonist. The protocol: Experimental compounds and drug substances were delivered transdermally in rats using iontophoresis as follows. The fur was shaved from the backs of Long Evans Hooded rats weighing 225 to 325 grams, using electric clippers. Experimental compounds and drug substances were formulated at suitable concentrations an aqueous mixture of the following composition:
The polyvinyl alcohol/water was heated to 95 degC until it became clear, then the other constituents were added and mixed well. The mixture was introduced into suitable molds containing a disc-shaped cavity 2.2 cm diameter and 2.2 mm deep. Molds may be fabricated using two glass sheets separated by a silicone rubber sheet with suitable sized cavities and filling ports cut-outs. The molds were subject to 3 freeze-thaw cycles at −80 degC and 20 degC until a firm cryogel was obtained. The gels were separated from the molds and trimmed into a circular shape. The gel was placed in a silicone rubber casing with one face in contact with a circular silver foil anodic electrode (22 mm dia/250 microns thick), and the assembly was placed on the shaved skin of the rat such that the other face was in contact with the skin on one side of the back of the rat. The rubber casing formed a seal over and around the gel/electrode assembly. […] This was placed on the other side of the shaved back of the rat, the edges of the gel discs being about 20 mm apart at their nearest point. A DC voltage was applied across the two patches from a constant-current DC power supply and the voltage adjusted to obtain the desired current, such that the skin of the animal completed the electrical circuit.
The devices were placed on shaved backs of anesthetized rats and salivation was measured.
The animals were placed slightly head-down on an inclined, heated ramp. Rectal temperature was monitored using a thermocouple and the temperature of the heating pad was adjusted manually to maintain normal body temperature. Saliva was collected from the mouth by absorption onto pre-weighed slips of filter paper. The filter paper was changed periodically and the amount of saliva was measured by weighing the filter paper slips.

Data set [2] is described as follows: Immediate release capsules in healthy male volunteers: serum pharmacokinetics, metabolites, cholinergic side effects. In kind it is in vivo, human. As for the experimental part:
A single 5 mg capsule or 5×0.2 mg capsules (1 mg total dose) were administered orally to healthy male volunteer human subjects with 125 ml of water. Six such subjects receiving the 5 mg dose, and a different 6 subjects received the 1 mg dose.
Subjects were monitored, among other things, for typical signs of muscarinic cholinergic action, such as increased salivation, lachrimation and diaphoresis. Venous blood samples were drawn at various intervals after dosing from each subject into standard tubes for bioanalytical and pharmacokinetic analysis. The blood was allowed to clot, and the serum separated, using common clinical laboratory techniques. Serum samples were stored at −20 deg C. until used for analysis.
MCD-386HCl, which exists in serum principally as the protonated form of MCD-386, was assayed in clinical serum samples as follows. 200 μL aliquots of serum samples were spiked with 50.0 μL of diluent for subject samples and QC samples and 50 μL of the appropriate intermediate standard solution for standards. Twenty five microliters (25.0 μL) of working internal standard stock solution and 40.0 μL of 10 N sodium hydroxide was then added and the samples were vortex mixed. Three milliliters (3.00 mL) of ethyl acetate was added followed by 5 minutes of vigorous vortexing and centrifugation. The top organic layer was transferred to a clean tube, evaporated to dryness, and the sample was reconstituted with 100 μL of diluent (0.1% formic acid). A 10 μL aliquot of this reconstituted sample was injected into Phenomenex Synergy 4μ POLAR-RP, 75×2.0 mm (P/N 00C-4336-B0) on a Waters Acuity HPLC LC system, and eluted using a gradient of from 12% to 90% acetonitrile containing 0.1% formic acid/0.1% formic acid in water. The eluant flow of the LC was injected by Turbo Ion Spray (positive ion) into a Sciex API 4000 (Applied Biosystems). The MS/MS transitions monitored were 181.1 m/z to 111.0 m/z for MCD-386HCl and 186.1 m/z to 111.1 m/z for the internal standard, D5-MCD-386HCl. The calibration curve was linear between 0.100 ng/mL and 50.0 ng/mL for MCD-386HCl. The lower limit of quantitation (LLOQ) was 0.100 ng MCD-386HCl per mL of serum. MCD-386HCl concentrations are expressed as free base.
The bioanalytical method for the extraction of metabolites from serum samples entailed adding 450 uL of a 90% acetonitrile+0.1% formic acid solution to 50 uL of the serum samples. The samples were vortexed and centrifuged at 16,000x g at 4° C. for 10 minutes. The supernatants were transferred to 3K molecular weight cut-off (MWCO) spin filters (Pall, Nanosep, #82031-346). Samples were filtered by centrifugation at 13,000×g at 4° C. for 20 minutes. The filtrates were transferred to a 96-well plate and sealed for LC/MS/MS analysis. The system used for this analysis was a Shimadzu Prominence HPLC system. […] The autosampler was maintained at 4° C. Injection volumes for all samples and standards were 40 uL. MRM methods for two possible metabolites were made. An API 3200 triple-quadrupole mass spectrometer with a Turbo V source (Applied Biosystems) was used, following commonly used procedures which would be readily set up by a person skilled in the art of LC-MS/MS. The counts of the characteristic parent and product ions of the free base metabolites were converted to concentration units by comparison with a standard calibration curve.
The bioanalytical results were analyzed using Win Nonlin software and common pharmacokinetic methods known to those skilled in the art.

Another data set addresses T1, rat M1 receptors (Rattus norvegicus, UniProt P08482).
T1 construct: host or cells: Chinese Hamster Ovary cells (M1-CHO)
T1 sequence (P08482 1-460): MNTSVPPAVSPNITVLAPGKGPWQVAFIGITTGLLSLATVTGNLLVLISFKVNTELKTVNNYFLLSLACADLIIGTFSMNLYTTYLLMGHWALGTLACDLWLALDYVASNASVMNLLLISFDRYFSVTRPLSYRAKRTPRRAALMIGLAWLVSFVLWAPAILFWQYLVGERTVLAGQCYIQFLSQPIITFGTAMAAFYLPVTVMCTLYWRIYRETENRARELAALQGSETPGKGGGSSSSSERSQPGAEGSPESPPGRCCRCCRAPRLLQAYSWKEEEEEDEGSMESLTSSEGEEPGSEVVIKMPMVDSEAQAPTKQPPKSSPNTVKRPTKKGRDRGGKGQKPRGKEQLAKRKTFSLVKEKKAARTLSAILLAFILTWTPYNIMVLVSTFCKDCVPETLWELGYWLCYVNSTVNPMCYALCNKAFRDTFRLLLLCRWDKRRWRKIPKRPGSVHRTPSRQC
Nature of the data set: PI turnover (inositol phosphate production) in M1-CHO cells. The format is cell-based. The note with it: M1 versus M3 cell lines. As for the experimental part: The medium was changed to 70 μL/well of inositol-free DMEM containing 2 mM glutamine, 10% FBS and 10 μCi/ml of [3H]-inositol (PE:cat #NET114A250UC), incubated overnight as above, then 100 μL of a solution of the test compound in HBSS containing 10 mM LiCl and 20 mM HEPES, pH 7.4 was added, incubation was continued for 60 min under the above conditions, and the test was stopped by removing the test compound and replacing with 100 μL of 50 mM formic acid in water at 4° C.

The nature of data set [3]: Blood and brain concentrations (rats) after oral gavage. The format is in vivo, rat. As for the experimental part:
Long-Evans Hooded rats (Charles River: male, 250-350 g) were dosed with solutions of test compounds in PBS by oral gavage. At the desired time after dosing, the animals were anesthetized with isoflurane, and then euthanized by cervical dislocation. Blood was obtained by cardiac puncture, transferred to a 1.5 mL microcentrifuge tube containing 15U Heparin, and the plasma recovered after centrifugation. Brains were dissected, weighed, immediately chilled to 4° C., and homogenized using a PowerGen 125 homogenizer in five volumes of ice-cold 2% formic acid. Proteins were precipitated from plasma and brain homogenate with two and five volumes respectively of ice-cold 2% formic acid and clarified by centrifugation. The supernatant was ultra-filtered by centrifugation through a 3K MWCO spin column (Pall Life Sciences), following the manufacturer's instructions. The concentration of compound in the ultra-filtrate was subjected to reverse-phase liquid chromatography using a 150×2.1 mm Agilent C8 reverse-phase column on a Shimadzu Prominence LC, eluting the compounds with a gradient of 2% to 50% of acetonitrile+0.1% formic acid for compound MI-50,382, or an isocratic flow of 2% acetonitrile+0.1% formic acid for the rest of the compounds listed. The concentration of the compound in the column effluent was measured using an Applied Biosystems API-3200 triple quadrupole mass spectrometer equipped with an electrospray sample injection system. The counts of the characteristic parent and product ions of each test compound were converted to concentration units by comparison with a standard calibration curve.

Consider `CC(C)[N+](C)(CCOC(=O)C1c2ccccc2Oc2ccccc21)C(C)C` [propantheline], for which, in data set [1] (antagonist 0.03 mg/kg), the “Block of increase in hippocampal inositol phosphate caused by Compound 3” value is “without blocking” and the “Block of increase in salivary gland inositol phosphate caused by Compound 3” value was “can block”. In the data set on rats, the “Reduction of salivation caused by transdermal iontophoretic delivery of Compound 3” value (shortened to “Reduction of salivation caused”) is reported as “greatly reduced”.
In the case of `CCc1noc(C2CN=CNC2)n1` (stereo not drawn) [MCD-386HCl, 5-(3-ethyl-1,2,4-oxadiazol-5-yl)-1,4,5,6-tetrahydropyrimidine], the “Observable cholinergic side effects” value in data set [2] (1 mg total dose cohort) was “none of the subjects in the 1 mg total dose cohort experienced any observable cholinergic side effects”. Further, in data set [2] (5 mg cohort), the Diaphoresis entry is “Two of these latter subjects experienced mild, transient diaphoresis that resolved within a short period, and two subjects experienced moderate diaphoresis”; the Hypersalivation entry is “One of the latter subjects also experienced mild hypersalivation”; the “Observable cholinergic side effects” value is “two subjects experienced no observable side effects, and four subjects showed signs of muscarinic cholinergic activity”. Further, the “Main metabolite in serum” value in data set [2] (5 mg dose cohort) was “identified in the serum samples of five out of six subjects”.
Take `NC(=O)C(c1ccccc1)(c1ccccc1)[C@@H]1CCN(CCc2ccc3c(c2)CCO3)C1` [darifenacin]: the “Block of increase in salivary gland inositol phosphate caused by Compound 3” value in data set [1] (antagonist 0.1 mg/kg) is listed as “less effective”. Besides, in the data set on rats, the “Reduction of salivation caused” value is reported as “reduced salivation, but were less effective”.
`C[N+]1(C)CCC(OC(=O)C(O)(c2ccccc2)C2CCCC2)C1` (stereo not drawn) [glycopyrrolate]: in data set [1] (antagonist 0.03 mg/kg), the “Block of increase in hippocampal inositol phosphate caused by Compound 3” value is “without blocking” and the “Block of increase in salivary gland inositol phosphate caused by Compound 3” value is “can block”. In the data set on rats, the “Reduction of salivation caused” value was “greatly reduced”.
Take `CCN(CC)CC#CCOC(=O)C(O)(c1ccccc1)C1CCCCC1` (stereo not drawn) [oxybutinin]: the “Block of increase in salivary gland inositol phosphate caused by Compound 3” value in data set [1] (antagonist 0.1 mg/kg) is reported as “less effective”. The “Reduction of salivation caused” value in the data set with rats is listed as “reduced salivation, but were less effective”.
Take `Cl.[2H]C([2H])(C)c1noc(C2CN=CNC2)n1` (stereo not drawn) [compound 6, 3-(1,1-d2-ethyl)-5-(1,4,5,6-tetrahydropyrimidin-5-yl)-1,2,4-oxadiazole hydrochloride]: at rat M1 receptors, the “Functional selectivity for M1 subtype by PI turnover” value is recorded as “M1-subtype functionally selective muscarinic agonists”. The “Brain Cmax (10 mg/kg po) 1 hr MCD-386 = 1.00” value in data set [3] (rat brain, 10 mg/kg po, 1 hr, relative to MCD-386) is recorded as 0.82. In data set [3] (rats after oral dosing), the “Penetration into the brain” value is reported as “penetrated into the brain”.
